Experimental data reported in patent US9206156B2, “Substituted indole derivatives” (GRÜNENTHAL GMBH, priority 2008, dated 2015).

Columns and labels:
human μ-opiate receptor = biological target: T1, human μ-opiate receptor (Homo sapiens, UniProt P35372); assay: μ-opiate receptor binding assay with [3H] naloxone (WGA-SPA beads); conditions: 1 μmol/l test substance, 1 nmol/l [3H] naloxone, CHO-K1 cell membranes expressing human μ-opiate receptor
T1 construct: purchased NEN, Zaventem, Belgium RB-HOM; host or cells: CHO-K1 cells (membrane preparation)
T1 sequence (P35372 whole entry): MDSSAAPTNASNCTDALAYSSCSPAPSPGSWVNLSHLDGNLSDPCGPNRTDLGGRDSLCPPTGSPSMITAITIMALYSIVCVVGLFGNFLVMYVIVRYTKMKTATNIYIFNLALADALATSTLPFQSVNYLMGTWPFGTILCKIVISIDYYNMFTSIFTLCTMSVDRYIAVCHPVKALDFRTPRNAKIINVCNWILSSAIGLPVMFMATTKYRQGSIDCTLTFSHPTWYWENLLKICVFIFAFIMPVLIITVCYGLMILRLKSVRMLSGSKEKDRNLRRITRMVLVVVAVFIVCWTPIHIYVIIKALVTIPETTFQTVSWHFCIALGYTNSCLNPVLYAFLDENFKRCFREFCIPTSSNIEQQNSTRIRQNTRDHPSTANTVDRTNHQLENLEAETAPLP
Method: The receptor affinity to the human μ-opiate receptor was determined in a homogeneous batch in microtitre plates. To this end, dilution series of the substituted indole derivative to be tested were incubated for 90 minutes at room temperature with a receptor membrane preparation (15-40 μg protein per 250 μl incubation batch) of CHO-K1 cells, which express the human μ-opiate receptor (RB—HOM receptor membrane preparation from NEN, Zaventem, Belgium), in the presence of 1 nmol/l of the radioactive ligand [^3H] naloxone (NET719, NEN, Zaventem, Belgium) and 1 mg of WGA-SPA beads (wheat germ agglutinin SPA beads from Amersham/Pharmacia, Freiburg, Germany) in a total volume of 250 μl. 50 mmol/l tris-HCl supplemented with 0.05 wt. % sodium azide and 0.06 wt. % bovine serum albumin were used as the incubation buffer. In order to determine the non-specific binding, 25 μmol/l of naloxone were also added. At the end of the ninety-minute incubation period the microtitre plates were centrifuged for 20 minutes at 1000 g and the radioactivity was measured in a β counter (Microbeta-Trilux, PerkinElmer Wallac, Freiburg, Germany). The percentage displacement of the radioactive ligand from its binding to the human μ-opiate receptor was determined at a test substance concentration of 1 μmol/l and stated as the percentage inhibition (% inhibition) of the specific binding. In some cases the percentage displacement due to differing concentrations of the compounds having the general formula I to be tested was used to calculate the IC50 inhibition concentrations which bring about a 50-percent displacement of the radioactive ligand. Ki values for the test substances were obtained by extrapolation using the Cheng-Prusoff equation.

ORL1 receptor = biological target: T2, ORL1 receptor (Homo sapiens, UniProt P41146); assay: ORL1 receptor binding assay with 3H-nociceptin/orphanin FQ (WGA-SPA beads); conditions: c=1 μM test substance; 0.5 nM 3H-nociceptin/orphanin FQ; membranes of recombinant CHO-ORL1 cells
T2 construct: expressed in transfected cells; host or cells: CHO (recombinant CHO-ORL1 cells), membranes
T2 sequence (P41146 whole entry): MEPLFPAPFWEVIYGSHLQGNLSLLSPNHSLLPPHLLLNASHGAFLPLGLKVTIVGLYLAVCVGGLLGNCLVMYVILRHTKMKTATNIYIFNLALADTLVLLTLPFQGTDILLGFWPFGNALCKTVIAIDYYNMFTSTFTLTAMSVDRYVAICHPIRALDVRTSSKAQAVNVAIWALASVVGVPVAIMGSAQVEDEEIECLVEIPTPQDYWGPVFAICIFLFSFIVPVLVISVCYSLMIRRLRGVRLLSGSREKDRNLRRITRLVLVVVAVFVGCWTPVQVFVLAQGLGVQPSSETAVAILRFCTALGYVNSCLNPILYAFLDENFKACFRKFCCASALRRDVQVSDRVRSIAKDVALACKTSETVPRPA
Method: Measurement of ORL1 Binding
The cyclohexane derivatives having the general formula I were investigated in a receptor binding assay with ^3H-nociceptin/orphanin FQ with membranes of recombinant CHO—ORL1 cells. This test system was conducted in accordance with the method described by Ardati et al. (Mol. Pharmacol., 51, 1997, p. 816-824). The concentration of ^3H-nociceptin/orphanin FQ in these tests was 0.5 nM. The binding assays were carried out with 20 μg amounts of membrane protein per 200 μl batch in 50 mM Hepes, pH 7.4, 10 mM MgCl2 and 1 mM EDTA. The binding to the ORL1 receptor was determined using 1 mg amounts of WGA-SPA beads (Amersham-Pharmacia, Freiburg, Germany), by incubation of the batch for one hour at room temperature and subsequent measurement in a Trilux scintillation counter (Wallac, Finland). The affinity is given in Table 1 as the nanomolar Ki value or in % inhibition at c=1 μM.

SMILES | inhibition at 1 µM (human μ-opiate receptor) | inhibition at 1 µM (ORL1 receptor) | further results
CC(C)C(CC(=O)N(C)CCN1CCC(c2ccccc2)(N2CCCC2)CC1)c1c[nH]c2ccccc12 (centres unmarked) [Example 32, 3-(1H-Indol-3-yl)-N,4-dimethyl-N-(2-(4-phenyl-4-(pyrrolidin-1-yl)piperidin-1-yl)ethyl)pentanamide] | 61% |  | 
CN(CCN1CCC(c2ccccc2)(N(C)C)CC1)Cc1c[nH]c2ccc(Cl)cc12 [Example 183, 1-(2-(((5-chloro-1H-indol-3-yl)methyl)(methy)amino)ethyl)-N,N-dimethyl-4-phenylpiperidin-4-amine] |  |  | % Inhibition (ORL1) at 1 μM (ORL1 receptor): 95%; % Inhibition (μ) at 1 μM (human μ-opiate receptor; 1 µM): 100%
CN(C)C1(c2cccs2)CCN(C(=O)CC(NCc2c[nH]c3ccc(Br)cc23)c2ccccc2)CC1 (centres unmarked) [Example 163, 3-((5-bromo-1H-indol-3-yl)methylamino)-1-(4-(dimethylamino)-4-(thiophen-2-yl)piperidin-1-yl)-3-phenylpropan-1-one] | 87% | 55% | 
CN(C)C1(c2cccs2)CCN(C(=O)CC(NC(=O)c2ccc3cc[nH]c3c2)c2ccccc2)CC1 (centres unmarked) [Example 96, N-(3-(4-(dimethylamino)-4-(thiophen-2-yl)piperidin-1-yl)-3-oxo-1-phenylpropyl)-1H-indole-6-carboxamide] | 96% | 79% | 
CN(CCCN1CCC(c2ccccc2)(N(C)C)CC1)C(=O)CCc1cn(C)c2ccccc12 [Example 50, N-(3-(4-(Dimethylamino)-4-phenylpiperidin-1-yl)propyl)-N-methyl-3-(1-methyl-1H-indol-3-yl)propanamide] | 79% | 39% | 
CCCCC1(N(C)C)CCN(CCN(C)C(=O)CCc2cn(C)c3ccccc23)CC1 [Example 49, N-(2-(4-Butyl-4-(dimethylamino)piperidin-1-yl)ethyl)-N-methyl-3-(1-methyl-1H-indol-3-yl)propanamide] | 52% | 17% | 
CN(C(=O)c1ccc2cc[nH]c2c1)C(C(=O)N1CCC(c2cccs2)(N(C)C)CC1)c1ccccc1 (centres unmarked) [Example 102, N-(2-(4-(dimethylamino)-4-(thiophen-2-yl)piperidin-1-yl)-2-oxo-1-phenylethyl)-N-methyl-1H-indole-6-carboxamide] | 66% | 65% | 
CN(C)C1(c2ccccc2)CCN(C(=O)CCNCc2c[nH]c3ccc(Br)cc23)CC1 [Example 162, 3-((5-bromo-1H-indol-3-yl)methylamino)-1-(4-(dimethylamino)-4-phenylpiperidin-1-yl)propan-1-one] | 80% | 63% | 
CN(CCCN1CCC(c2cccs2)(N(C)C)CC1)C(=O)Cc1c[nH]c2cc(F)ccc12 [Example 26, N-(3-(4-(Dimethylamino)-4-(thiophen-2-yl)piperidin-1-yl)propyl)-2-(6-fluoro-1H-indol-3-yl)-N-methylacetamide] | 88% | 59% | 
CC(C)C(CC(=O)NCCN1CCC(c2cccs2)(N(C)C)CC1)c1c[nH]c2ccccc12 (centres unmarked) [Example 6, N-(2-(4-(Dimethylamino)-4-(thiophen-2-yl)piperidin-1-yl)ethyl)-3-(1H-indol-3-yl)-4-methylpentanamide] |  |  | % Inhibition (ORL1) at 1 μM (ORL1 receptor): 98%; % Inhibition (μ) at 1 μM (human μ-opiate receptor; 1 µM): 102%
CN(C)C1(c2cccs2)CCN(C(=O)CC(NCc2ccc3[nH]ccc3c2)c2ccccc2)CC1 (centres unmarked) [Example 165, 3-((1H-indol-5-yl)methylamino)-1-(4-(dimethylamino)-4-(thiophen-2-yl)piperidin-1-yl)-3-phenylpropan-1-one] | 92% | 47% | 
CN(C)C1(c2ccccc2)CCN(C(=O)C2CCCN(Cc3ccc4cc[nH]c4c3)C2)CC1 (centres unmarked) [Example 152, (1-((1H-indol-6-yl)methyl)piperidin-3-yl)(4-(dimethylamino)-4-phenylpiperidin-1-yl)methanone] | 93% | 80% | 
CN(CCN1CCC(c2ccccc2)(N2CCCC2)CC1)Cc1cccc2[nH]ccc12 [Example 159, N-((1H-indol-4-yl)methyl)-N-methyl-2-(4-phenyl-4-(pyrrolidin-1-yl)piperidin-1-yl)ethanamine] | 64% |  | 
CCCCC1(N(C)C)CCN(CCN(C)C(=O)c2c[nH]c3ccccc23)CC1 [Example 47, N-(2-(4-Butyl-4-(dimethylamino)piperidin-1-yl)ethyl)-N-methyl-1H-indole-3-carboxamide] | 61% |  | 
CC(CC(=O)N(C)CCN1CCC(c2ccccc2)(N2CCCC2)CC1)c1c[nH]c2ccccc12 (centres unmarked) [Example 57, 3-(1H-Indol-3-yl)-N-methyl-N-(2-(4-phenyl-4-(pyrrolidin-1-yl)piperidin-1-yl)ethyl)butanamide] | 45% |  | 
CCCCC1(N(C)C)CCN(CCN(C)C(=O)c2ccc3cc[nH]c3c2)CC1 [Example 55, N-(2-(4-Butyl-4-(dimethylamino)piperidin-1-yl)ethyl)-N-methyl-1H-indole-6-carboxamide] | 66% |  | 
CCCCC1(N(C)C)CCN(CCN(C)C(=O)c2ccc3ccn(C)c3c2)CC1 [Example 38, N-(2-(4-Butyl-4-(dimethylamino)piperidin-1-yl)ethyl)-N,1-dimethyl-1H-indole-6-carboxamide] | 68% |  | 
COc1ccc2[nH]c(C(=O)N(C)CCN3CCC(c4ccccc4)(N4CCCC4)CC3)cc2c1 [Example 64, 5-Methoxy-N-methyl-N-(2-(4-phenyl-4-(pyrrolidin-1-yl)piperidin-1-yl)ethyl)-1H-indole-2-carboxamide] | 18% |  | 
CCCCC1(N(C)C)CCN(CCN(C)C(=O)c2cc3cc(OC)ccc3[nH]2)CC1 [Example 65, N-(2-(4-Butyl-4-(dimethylamino)piperidin-1-yl)ethyl)-5-methoxy-N-methyl-1H-indole-2-carboxamide] | 42% |  | 
CN(CCN1CCC(c2ccccc2)(N2CCCC2)CC1)Cc1c[nH]c2ccc(Br)cc12 [Example 153, N-((5-bromo-1H-indol-3-yl)methyl)-N-methyl-2-(4-phenyl-4-(pyrrolidin-1-yl)piperidin-1-yl)ethanamine] | 93% |  | 
CN(CCN1CCC(c2ccccc2)(N2CCCC2)CC1)C(=O)c1c[nH]c2ccccc12 [Example 46, N-Methyl-N-(2-(4-phenyl-4-(pyrrolidin-1-yl)piperidin-1-yl)ethyl)-1H-indole-3-carboxamide] | 20% |  | 
CCCCC1(N(C)C)CCN(CCN(C)Cc2cccc3[nH]ccc23)CC1 [Example 160, 1-(2-(((1H-indol-4-yl)methyl)(methy)amino)ethyl)-4-butyl-N,N-dimethylpiperidin-4-amine] |  |  | % Inhibition (μ) at 1 μM (human μ-opiate receptor): 87%
CN(CCN1CCC(c2ccccc2)(N2CCCC2)CC1)Cc1c[nH]c2ccccc12 [Example 137, N-((1H-indol-3-yl)methyl)-N-methyl-2-(4-phenyl-4-(pyrrolidin-1-yl)piperidin-1-yl)ethanamine] | 82% |  | 
CN(CCN1CCC(c2ccccc2)(N2CCCC2)CC1)C(=O)CCc1cn(C)c2ccccc12 [Example 48, N-Methyl-3-(1-methyl-1H-indol-3-yl)-N-(2-(4-phenyl-4-(pyrrolidin-1-yl)piperidin-1-yl)ethyl)propanamide] | 14% |  | 
CN(CCN1CCC(c2ccccc2)(N2CCCC2)CC1)C(=O)c1ccc2cc[nH]c2c1 [Example 54, N-Methyl-N-(2-(4-phenyl-4-(pyrrolidin-1-yl)piperidin-1-yl)ethyl)-1H-indole-6-carboxamide] | 15% |  | 
CN(CCN1CCC(c2ccccc2)(N2CCCC2)CC1)C(=O)c1cccc2c1ccn2C [Example 40, N,1-Dimethyl-N-(2-(4-phenyl-4-(pyrrolidin-1-yl)piperidin-1-yl)ethyl)-1H-indole-4-carboxamide] | 40% |  | 
CCCCC1(N(C)C)CCN(CCN(C)Cc2ccc3[nH]ccc3c2)CC1 [Example 141, 1-(2-(((1H-indol-5-yl)methyl)(methyl)amino)ethyl)-4-butyl-N,N-dimethylpiperidin-4-amine] | 82% |  | 
